Results taken from PubChem BioAssay AID1745844 (Carcinogenic Potency Database (CPDB), 2022).
Activity calls are given as the source filed them. No rule for the calls is given here.

System: rodent lifetime carcinogenesis bioassay, tumor incidence TD50
Assay: chronic cancer bioassays in animals – CPDB, compiled studies (AID 1745844)

C=C1C[C@@]23CC[C@H]4[C@@](C)(CCC[C@@]4(C)C(=O)O[C@@H]4O[C@H](CO)[C@@H](O)[C@H](O)[C@H]4O)[C@@H]2CC[C@]1(O[C@@H]1O[C@H](CO)[C@@H](O)[C@H](O)[C@H]1O[C@@H]1O[C@H](CO)[C@@H](O)[C@H](O)[C@H]1O)C3
inactive: TD50 (rat, strain F344/DuCrj, females, in feed, site: any site (literature study), lesion: several types, types named in the paper, dosed 104 weeks, study length 108 weeks) 34400 mg/kg/day | carcinogen call (rat, strain F344/DuCrj, females, in feed, site: liver, lesion: one or several types, types not named, dosed 104 weeks, study length 108 weeks) negative | carcinogen call (rat, strain F344/DuCrj, males, in feed, site: any site (literature study), lesion: several types, types named in the paper, dosed 104 weeks, study length 108 weeks) negative | carcinogen call (rat, strain F344/DuCrj, males, in feed, site: liver, lesion: hepatocellular adenoma, dosed 104 weeks, study length 108 weeks) negative | TD50 (rat, strain F344/DuCrj, males, in feed, site: liver, lesion: hepatocellular carcinoma, dosed 104 weeks, study length 108 weeks) 101000 mg/kg/day

CCCCCCCCCCCCCCN(C)N=O
active: carcinogen call (rat, strain Fischer 344, males, by gavage, site: any site (literature study), lesion: several types, types named in the paper, dosed 30 weeks, study length 102 weeks) positive | TD50 (rat, strain Fischer 344, males, by gavage, site: lung, lesion: adenocarcinoma, dosed 30 weeks, study length 102 weeks) 60.5 mg/kg/day | TD50 (rat, strain Fischer 344, males, by gavage, site: lung, lesion: adenoma, dosed 30 weeks, study length 102 weeks) 29.4 mg/kg/day | carcinogen call (rat, strain Fischer 344, males, by gavage, site: urinary bladder, lesion: transitional-cell carcinoma, dosed 30 weeks, study length 102 weeks) positive

CC[N+](=O)[O-]
inactive: TD50 (rat, strain Long-Evans BLU:(LE), females, inhaled, site: liver, lesion: hepatocellular carcinoma, dosed 105 weeks, study length 105 weeks) 2190 mg/kg/day | carcinogen call (rat, strain Long-Evans BLU:(LE), males, inhaled, site: liver, lesion: one or several types, types not named, dosed 105 weeks, study length 105 weeks) negative

O=C(O)CCCC/C=C(\c1ccccc1)c1cccnc1
inactive: carcinogen call (mouse, strain Charles River CD1, females, in feed, site: any site (literature study), lesion: several types, types named in the paper, dosed 104 weeks, study length 104 weeks) negative | TD50 (mouse, strain Charles River CD1, females, in feed, site: liver, lesion: hepatocellular adenoma, dosed 104 weeks, study length 104 weeks) 4930 mg/kg/day | carcinogen call (mouse, strain Charles River CD1, females, in feed, site: lung, lesion: alveolar/bronchiolar adenoma, dosed 104 weeks, study length 104 weeks) negative | carcinogen call (mouse, strain Charles River CD1, females, in feed, site: lung, lesion: alveolar/bronchiolar carcinoma, dosed 104 weeks, study length 104 weeks) negative | TD50 (mouse, strain Charles River CD1, males, in feed, site: any site (literature study), lesion: several types, types named in the paper, dosed 104 weeks, study length 104 weeks) 1090 mg/kg/day | TD50 (mouse, strain Charles River CD1, males, in feed, site: liver, lesion: hepatocellular adenoma, dosed 104 weeks, study length 104 weeks) 2050 mg/kg/day | TD50 (mouse, strain Charles River CD1, males, in feed, site: liver, lesion: hepatocellular carcinoma, dosed 104 weeks, study length 104 weeks) 10200 mg/kg/day | TD50 (mouse, strain Charles River CD1, males, in feed, site: lung, lesion: alveolar/bronchiolar adenoma, dosed 104 weeks, study length 104 weeks) 1220 mg/kg/day | carcinogen call (mouse, strain Charles River CD1, males, in feed, site: lung, lesion: alveolar/bronchiolar carcinoma, dosed 104 weeks, study length 104 weeks) negative | carcinogen call (rat, strain Charles River CD (Sprague-Dawley), females, in feed, site: liver, lesion: hepatocellular adenoma, dosed 104 weeks, study length 104 weeks) negative | carcinogen call (rat, strain Charles River CD (Sprague-Dawley), males, in feed, site: liver, lesion: hepatocellular adenoma, dosed 104 weeks, study length 104 weeks) negative

C=CCOc1ccc(CC(=O)O)cc1Cl
inactive: carcinogen call (rat, strain Wistar, females, in feed, site: any site (literature study), lesion: several types, types named in the paper, dosed 104 weeks, study length 104 weeks) negative | carcinogen call (rat, strain Wistar, females, in feed, site: liver, lesion: several types, types named in the paper, dosed 104 weeks, study length 104 weeks) negative | TD50 (rat, strain Wistar, females, in feed, site: ovary, lesion: several types, types named in the paper, dosed 104 weeks, study length 104 weeks) 390 mg/kg/day | carcinogen call (rat, strain Wistar, males, in feed, site: any site (literature study), lesion: several types, types named in the paper, dosed 104 weeks, study length 104 weeks) negative | carcinogen call (rat, strain Wistar, males, in feed, site: liver, lesion: several types, types named in the paper, dosed 104 weeks, study length 104 weeks) negative

CC(O)CCl (stereo unspecified)
427 mg/kg/day: TD50 (rat, strain Fischer 344, males, in drinking water, site: liver, lesion: hepatocellular adenoma + hepatoblastoma + hepatocellular carcinoma, dosed 104 weeks, study length 104 weeks)
inactive: carcinogen call (mouse, strain B6C3F1, females, in drinking water, site: any site (literature study), lesion: several types, types named in the paper, dosed 105 weeks, study length 105 weeks) negative | carcinogen call (mouse, strain B6C3F1, males, in drinking water, site: any site (literature study), lesion: several types, types named in the paper, dosed 104 weeks, study length 104 weeks) negative | carcinogen call (rat, strain Fischer 344, females, in drinking water, site: any site (literature study), lesion: several types, types named in the paper, dosed 104 weeks, study length 104 weeks) negative | carcinogen call (rat, strain Fischer 344, males, in drinking water, site: any site (literature study), lesion: several types, types named in the paper, dosed 104 weeks, study length 104 weeks) negative
1040 mg/kg/day: TD50 (mouse, strain B6C3F1, females, in drinking water, site: liver, lesion: hepatocellular adenoma + hepatoblastoma + hepatocellular carcinoma, dosed 105 weeks, study length 105 weeks)
707 mg/kg/day: TD50 (rat, strain Fischer 344, females, in drinking water, site: liver, lesion: hepatocellular adenoma + hepatoblastoma + hepatocellular carcinoma, dosed 104 weeks, study length 104 weeks)

Cc1c2ccccc2c(C)c2c1ccc1ccccc12
0.287 mg/kg/day: TD50 (mouse, strain albino, females, in feed, site: forestomach, lesion: papilloma, dosed 60 weeks, study length 60 weeks)
active: TD50 (mouse, strain albino, females, in feed, site: mesenteric intestine, lesion: angio-endothelioma, malignant, dosed 60 weeks, study length 60 weeks) 0.084 mg/kg/day
